Measured values taken from US12310975B2, “Modulators of BCL6 proteolysis and associated methods of use” (Arvinas Operations, Inc., priority 2019, dated 2025).

Biological target: BCL6 (Homo sapiens (Human), UniProt P41182)
Experiment: Immunofluorescence high content imaging of BCL6 degradation in T47D cells
Type: cell-based
Details: T47D cells
Procedure, shortened: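 BCL6 loss was quantified by high-content imaging (10×, 4 fields/well) after PFA fixation and anti-BCL6/Alexa-488 staining with Hoechst nuclear and CellMask counterstains. Compounds were applied for 3 days to T47D breast cancer cells in RPMI-10% FBS, 11 points, 3-fold steps, top 0.1 or 1 μM.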

Row | SMILES | Dmax [%] | IC50 [nM]
1 | CNC(=O)COc1cc2cc(Nc3nc(N4CCC(F)(CN5CCN(c6cccc7c6C(=O)N(C6CCC(=O)NC6=O)C7=O)CC5)CC4)ncc3Cl)ccc2n(C)c1=O (stereo not shown) [compound 342, 2-{[6-({5-chloro-2-[4-({4-[2-(2,6-dioxopiperidin-3-yl)-1,3-dioxo-2,3-dihydro-1H-isoindol-4-yl]piperazin-1-yl}methyl)-4-fluoropiperidin-1-yl]pyrimidin-4-yl}amino)-1-methyl-2-oxo-1,2-dihydroquinolin-3-yl]oxy}-N-methylacetamide] | 50 to 70 | < 10
2 | CNC(=O)COc1cc2cc(Nc3nc(N4CCC[C@H](COc5cccc6c5C(=O)N(C5CCC(=O)NC5=O)C6=O)C4)ncc3Cl)ccc2n(C2CCCCC2)c1=O (stereo partly drawn) [compound 343, 2-{[6-({5-chloro-2-[(3S)-3-({[2-(2,6-dioxopiperidin-3-yl)-1,3-dioxo-2,3-dihydro-1H-isoindol-4-yl]oxy}methyl)piperidin-1-yl]pyrimidin-4-yl}amino)-1-cyclohexyl-2-oxo-1,2-dihydroquinolin-3-yl]oxy}-N-methylacetamide] | 50 to 70 | < 10
3 | CCOc1cc(N2CCC(CN3CCN(c4ncc(Cl)c(Nc5ccc6c(c5)cc(OCC(=O)NC)c(=O)n6C)n4)CC3)CC2)ccc1C(=O)NC1CCC(=O)NC1=O (stereo not shown) [compound 344, 4-[4-({4-[5-chloro-4-({1-methyl-3-[(methylcarbamoyl)methoxy]-2-oxo-1,2-dihydroquinolin-6-yl}amino)pyrimidin-2-yl]piperazin-1-yl}methyl)piperidin-1-yl]-N-(2,6-dioxopiperidin-3-yl)-2-ethoxybenzamide] | < 50 | < 10
4 | CCCOc1cc(N2CCC(CN3CCN(c4ncc(Cl)c(Nc5ccc6c(c5)cc(OCC(=O)NC)c(=O)n6C)n4)CC3)CC2)ccc1C(=O)NC1CCC(=O)NC1=O (stereo not shown) [compound 345, 4-[4-({4-[5-chloro-4-({1-methyl-3-[(methylcarbamoyl)methoxy]-2-oxo-1,2-dihydroquinolin-6-yl}amino)pyrimidin-2-yl]piperazin-1-yl}methyl)piperidin-1-yl]-N-(2,6-dioxopiperidin-3-yl)-2-propoxybenzamide] | – | ≥ 100
5 | CNC(=O)COc1cc2cc(Nc3nc(N4C[C@@H](C)N(CC5CCN(c6ccc(C(=O)NC7CCC(=O)NC7=O)c(OC)c6)CC5)[C@@H](C)C4)ncc3Cl)ccc2n(C)c1=O (stereo partly drawn) [compound 346, 4-(4-{[(2R,6S)-4-[5-chloro-4-({1-methyl-3-[(methylcarbamoyl)methoxy]-2-oxo-1,2-dihydroquinolin-6-yl}amino)pyrimidin-2-yl]-2,6-dimethylpiperazin-1-yl]methyl}piperidin-1-yl)-N-(2,6-dioxopiperidin-3-yl)-2-methoxybenzamide] | 50 to 70 | < 10
6 | CNC(=O)COc1cc2cc(Nc3nc(N4CCC(CN5[C@H](C)CN(c6ccc(C(=O)NC7CCC(=O)NC7=O)c(OC)c6)C[C@@H]5C)CC4)ncc3Cl)ccc2n(C)c1=O (stereo partly drawn) [compound 347, 4-[(3R,5S)-4-({1-[5-chloro-4-({1-methyl-3-[(methylcarbamoyl)methoxy]-2-oxo-1,2-dihydroquinolin-6-yl}amino)pyrimidin-2-yl]piperidin-4-yl}methyl)-3,5-dimethylpiperazin-1-yl]-N-(2,6-dioxopiperidin-3-yl)-2-methoxybenzamide] | 50 to 70 | < 10
7 | CNC(=O)COc1cc2cc(Nc3nc(N4CCO[C@H](COc5ccc(C(=O)NC6CCC(=O)NC6=O)cc5)C4)ncc3Cl)ccc2n(C(C)C)c1=O (stereo partly drawn) [compound 348, 4-{[(2S)-4-[5-chloro-4-({3-[(methylcarbamoyl)methoxy]-2-oxo-1-(propan-2-yl)-1,2-dihydroquinolin-6-yl}amino)pyrimidin-2-yl]morpholin-2-yl]methoxy}-N-(2,6-dioxopiperidin-3-yl)benzamide] | < 50 | 10 to 50
8 | CNC(=O)COc1cc2cc(Nc3nc(N4CCO[C@H](COc5ccc(C(=O)NC6CCC(=O)NC6=O)nc5)C4)ncc3Cl)ccc2n(C(C)C)c1=O (stereo partly drawn) [compound 349, 5-{[(2S)-4-[5-chloro-4-({3-[(methylcarbamoyl)methoxy]-2-oxo-1-(propan-2-yl)-1,2-dihydroquinolin-6-yl}amino)pyrimidin-2-yl]morpholin-2-yl]methoxy}-N-(2,6-dioxopiperidin-3-yl)pyridine-2-carboxamide] | < 50 | ≥ 100
9 | CNC(=O)COc1cc2cc(Nc3nc(N4CCO[C@H](COc5ccc(C(=O)NC6CCC(=O)NC6=O)c(F)c5)C4)ncc3Cl)ccc2n(C(C)C)c1=O (stereo partly drawn) [compound 350, 4-{[(2S)-4-[5-chloro-4-({3-[(methylcarbamoyl)methoxy]-2-oxo-1-(propan-2-yl)-1,2-dihydroquinolin-6-yl}amino)pyrimidin-2-yl]morpholin-2-yl]methoxy}-N-(2,6-dioxopiperidin-3-yl)-2-fluorobenzamide] | < 50 | < 10
10 | CNC(=O)COc1cc2cc(Nc3nc(N4CCO[C@H](COc5ccc(C(=O)NC6CCC(=O)NC6=O)c(OC)c5)C4)ncc3Cl)ccc2n(C(C)C)c1=O (stereo partly drawn) [compound 351, 4-{[(2S)-4-[5-chloro-4-({3-[(methylcarbamoyl)methoxy]-2-oxo-1-(propan-2-yl)-1,2-dihydroquinolin-6-yl}amino)pyrimidin-2-yl]morpholin-2-yl]methoxy}-N-(2,6-dioxopiperidin-3-yl)-2-methoxybenzamide] | < 50 | 10 to 50
11 | CNC(=O)COc1cc2cc(Nc3nc(N4CCC(CCN5CCN(c6ccc7c(c6)C(=O)N(C6CCC(=O)NC6=O)C7=O)CC5)CC4)ncc3Cl)ccc2n(C)c1=O (stereo not shown) [compound 353, 2-{[6-({5-chloro-2-[4-(2-(4-[2-(2,6-dioxopiperidin-3-yl)-1,3-dioxo-2,3-dihydro-1H-isoindol-5-yl]piperazin-1-yl}ethyl)piperidin-1-yl]pyrimidin-4-yl}amino)-1-methyl-2-oxo-1,2-dihydroquinolin-3-yl]oxy}-N-methylacetamide] | 50 to 70 | < 10
12 | CNC(=O)COc1cc2cc(Nc3nc(N4CCN(CC5CCN(c6cc(F)c(C(=O)NC7CCC(=O)NC7=O)c(OC)c6)CC5)CC4)ncc3Cl)ccc2n(C)c1=O (stereo not shown) [compound 354, 4-[4-({4-[5-chloro-4-({1-methyl-3-[(methylcarbamoyl)methoxy]-2-oxo-1,2-dihydroquinolin-6-yl}amino)pyrimidin-2-yl]piperazin-1-yl}methyl)piperidin-1-yl]-N-(2,6-dioxopiperidin-3-yl)-2-fluoro-6-methoxybenzamide] | 50 to 70 | < 10
13 | CNC(=O)COc1cc2cc(Nc3nc(N4C[C@@H](C)N(CC5CCN(c6cccc(C(=O)NC7CCC(=O)NC7=O)c6F)CC5)[C@@H](C)C4)ncc3Cl)ccc2n(C)c1=O (stereo partly drawn) [compound 355, 3-(4-{[(2R,6S)-4-[5-chloro-4-({1-methyl-3-[(methylcarbamoyl)methoxy]-2-oxo-1,2-dihydroquinolin-6-yl}amino)pyrimidin-2-yl]-2,6-dimethylpiperazin-1-yl]methyl}piperidin-1-yl)-N-(2,6-dioxopiperidin-3-yl)-2-fluorobenzamide] | 50 to 70 | 50 to 100
14 | CNC(=O)COc1cc2cc(Nc3nc(N4CCN(C(C)(C)C5CCN(c6cc(OC)cc(C(=O)NC7CCC(=O)NC7=O)c6F)CC5)CC4)ncc3Cl)ccc2n(C)c1=O (stereo not shown) [compound 356, 3-[4-(2-{4-[5-chloro-4-({1-methyl-3-[(methylcarbamoyl)methoxy]-2-oxo-1,2-dihydroquinolin-6-yl}amino)pyrimidin-2-yl]piperazin-1-yl}propan-2-yl)piperidin-1-yl]-N-(2,6-dioxopiperidin-3-yl)-2-fluoro-5-methoxybenzamide] | ≥ 70 | < 10
15 | CCn1c(=O)c(OCC(=O)NC)cc2cc(Nc3nc(N4CCN([C@@H]5C[C@@H](COc6ccc7c(c6)C(=O)N(C6CCC(=O)NC6=O)C7=O)N(C)C5)CC4)ncc3Cl)ccc21 (stereo partly drawn) [compound 357, 2-({6-[(5-chloro-2-{4-[(3R,5S)-5-({[2-(2,6-dioxopiperidin-3-yl)-1,3-dioxo-2,3-dihydro-1H-isoindol-5-yl]oxy}methyl)-1-methylpyrrolidin-3-yl]piperazin-1-yl}pyrimidin-4-yl)amino]-1-ethyl-2-oxo-1,2-dihydroquinolin-3-yl}oxy)-N-methylacetamide] | < 50 | 50 to 100
16 | CNC(=O)COc1cc2cc(Nc3nc(N4CCN(CC5CCN(c6ccc(C(=O)NC7CCC(=O)NC7=O)c(OC(C)C)c6)CC5)CC4)ncc3Cl)ccc2n(C)c1=O (stereo not shown) [compound 358, 4-[4-({4-[5-chloro-4-({1-methyl-3-[(methylcarbamoyl)methoxy]-2-oxo-1,2-dihydroquinolin-6-yl}amino)pyrimidin-2-yl]piperazin-1-yl}methyl)piperidin-1-yl]-N-(2,6-dioxopiperidin-3-yl)-2-(propan-2-yloxy)benzamide] | – | ≥ 100
17 | CNC(=O)COc1cc2cc(Nc3nc(N4CCN(CC5CCN(c6cnc(C(=O)NC7CCC(=O)NC7=O)c(OC)c6)CC5)CC4)ncc3Cl)ccc2n(C)c1=O (stereo not shown) [compound 359, 5-[4-({4-[5-chloro-4-({1-methyl-3-[(methylcarbamoyl)methoxy]-2-oxo-1,2-dihydroquinolin-6-yl}amino)pyrimidin-2-yl]piperazin-1-yl}methyl)piperidin-1-yl]-N-(2,6-dioxopiperidin-3-yl)-3-methoxypyridine-2-carboxamide] | 50 to 70 | 10 to 50
18 | CNC(=O)COc1cc2cc(Nc3nc(N4CCC(CN5CCC(c6nc(C(=O)NC7CCC(=O)NC7=O)cs6)CC5)CC4)ncc3Cl)ccc2n(C)c1=O (stereo not shown) [compound 360, 2-[1-({1-[5-chloro-4-({1-methyl-3-[(methylcarbamoyl)methoxy]-2-oxo-1,2-dihydroquinolin-6-yl}amino)pyrimidin-2-yl]piperidin-4-yl}methyl)piperidin-4-yl]-N-(2,6-dioxopiperidin-3-yl)-1,3-thiazole-4-carboxamide] | 50 to 70 | 10 to 50
